Reference: patent US20040023362A1, “Degradation of polycyclic aromatic hydrocarbons by microorganisms” (priority 2000, published 2004)
“Also recorded” adds a separate entry of the source.

Tests used:
[1] = Surfactant critical micelle concentration, duNouy ring tensitometer; format: physicochemical; settings: for CMC in BSM compared with deionized (distilled) water: 30° C.; for CMC: in BSM
Protocol: Experiments to evaluate surfactant CMC values were conducted at 30° C. using a duNouy ring tensitometer (Cambridge Instrument Company Limited, London, England). All glassware was cleaned with chromic acid solution, and the tensitometer ring was cleaned with acetone and heated to redness in a gas flame. Various concentrations of surfactant solutions were prepared in deionized water and BSM. Surfactant solutions were allowed to equilibrate for approximately 2 h before measurements were made. Measurements were an average of five readings (SD<0.3%). CMC value was taken from the plot of surface tension versus log surfactant concentration, as described by Kile and Chiou (1989).

[2] = test system: S. maltophilia VUN 10,010; test: Pyrene degradation and growth of VUN 10,010 in the presence of surfactants; format: cell-based, Stenotrophomonas maltophilia; settings: for effect on growth of VUN 10,010 on pyrene (protein analysis, MPN): surfactant 5-10 g l^−1; for effect on pyrene degradation by VUN 10,010: surfactant 5-10 g l^−1 (up to 10 g l^−1)
Protocol: Each surfactant was added to the medium to achieve the following concentrations: 0.5 g l^−1 (▴), 5.0 g l^−1 (●) and 10.0 g l^−1 (▪). The control cultures ( ) contained no added surfactant. The incubations were performed in BSM at 30° C., using low initial cell populations.
Growth was monitored by measuring protein concentration and viable cell numbers at regular intervals up to 10 days. Viable cell numbers were determined by most probable number (MPN) estimates (Collin et al, 1989).
Three types of controls were used: cultures containing no surfactant, uninoculated broth, and killed cell cultures (0.2% HgCl2). All cultures were incubated at 30° C./175 rpm. Bacterial growth was determined by MPN estimates.

[3] = test system: strain VUN 10,010; test: Agar (well) diffusion toxicity test of surfactants; format: cell-based, Stenotrophomonas maltophilia; settings: concentrations of 5 and 10 g l^−1
Protocol: The agar diffusion method was used to determine the effects of surfactants on growth by observing zones of inhibition on peptone-glucose agar (Cserhali et al, 1991). The medium contained per litre: 5 g peptone, 5 g glucose, 0.5 g NaCl, 3 g beef extract, 20 g agar; the pH was adjusted to 7.0 and sterilized by autoclaving for 15 min at 121° C. Bacterial cultures were mixed with the molten medium (25 ml) to obtain an inoculum size of approximately 10^8 cells ml^−1, and this was poured into a Petri dish. Once the cell-medium mixture had solidified, 7 mm diameter holes were made, and 150 μl of aqueous surfactant solutions was added (0.1-10.0 g l^−1). Growth inhibition zones were observed after 48-72 h at 30° C.

[4] = physchem
Protocol: PAHs (approximately 1 g l^−1) were added to a 10 ml solution of BSM plus surfactant in a 30 ml glass reaction vial, which was sealed with an aluminium cap fitted with a septum. Surfactant concentrations corresponded to levels above, below, and at the CMC, and replicates were set up to allow sampling in duplicate at different time intervals up to 72 h. Incubation was performed at 30° C. and 175 rpm. The entire vial contents was collected by syringe and expressed through a preconditioned membrane filter (0.22 μm, Sartorius AG, Germany) to remove solid-phase crystalline PAH while allowing solubilized PAH in the aqueous phase and micellar pseudophase to pass into sterile vials. The filter was preconditioned by purging the filter with a few mls of sample solution to allow sorption saturation of the internal surfaces of the syringe, filter and needle. The filtrates were extracted with dichloromethane (DCM), and the concentration of solubilized PAH was determined by GC-FID as described below.
The effectiveness of a particular surfactant in solubilizing a given PAH can be assessed by determining the molar solubilization ratio (MSR) and micelle/water partition coefficient (Km). In our study, the concentrations of added PAHs were well in excess of aqueous saturation concentrations; therefore the MSR value of each compound can be obtained from the slope of the curve generated from a plot of PAH concentration versus surfactant concentration for surfactant concentrations above CMC (Edwards et al, 1991).
Km values can be determined from the measured MSR values according to the following equation (Edwards et al, 1991): [formula]
^SPAH, CMC is the apparent solubility of the PAH (mol l^−1) at surfactant CMC. VW is the molar volume of water at 30° C. ie. 0.018015 l mol^−1(Rogers and Mayhew, 1981).

[5] = data from the manufacturers; cited from earlier work
[6] = Ghosh et al (1995); medium and temperature not specified; cited from earlier work

## Igepal CA-630
[1]
  CMC in BSM compared with deionized (distilled) water: higher CMC values in BSM
  CMC: 0.1078 mM
[2]
  effect on growth of VUN 10,010 on pyrene (protein analysis, MPN): inhibited
  effect on pyrene degradation by VUN 10,010: inhibited pyrene degradation; also recorded: inhibitory to pyrene degradation
[3]
  effect on microbial growth: some inhibition
[4]
  MSR (molar solubilization ratio), PYR: 0.0326
  log Km (micelle-phase/aqueous-phase partition coefficient), PYR: 5.39
[5]
  HLB (hydrophile-lipophile balance number): 13.0

## Triton X-100
[6]
  MSR for benzo[a]pyrene: 1.5×10^−2
[1]
  CMC in BSM compared with deionized (distilled) water: higher CMC values in distilled water
  CMC: 0.2320 mM
[2]
  effect on pyrene degradation by VUN 10,010: enhanced
[4]
  MSR (molar solubilization ratio), BAP: 0.0113
  MSR (molar solubilization ratio), FA: 0.0508
  MSR (molar solubilization ratio), PYR: 0.0352
  log Km (micelle-phase/aqueous-phase partition coefficient), BAP: 7.49
  log Km (micelle-phase/aqueous-phase partition coefficient), FA: 5.64
  log Km (micelle-phase/aqueous-phase partition coefficient), PYR: 5.84
[5]
  HLB (hydrophile-lipophile balance number): 13.5

## Tyloxapol
[1]
  CMC in BSM compared with deionized (distilled) water: higher CMC values in distilled water
  CMC: 0.0167 mM
[2]
  effect on growth of VUN 10,010 on pyrene (protein analysis, MPN): significantly improved
  effect on pyrene degradation by VUN 10,010: enhanced
[2]; surfactant 5-10 g l^−1, presolubilized pyrene
  reduction of time required for VUN 10,010 to degrade 250 mg l^−1 of pyrene: 50%
[4]
  MSR (molar solubilization ratio), PYR: 0.0820
  log Km (micelle-phase/aqueous-phase partition coefficient), PYR: 6.60
[5]
  HLB (hydrophile-lipophile balance number): 12.9
